Experimental data as given in patent publication US5023254A, “Aminoalkylindoles, their production, and pharmaceutical preparations based thereon” (Schering Aktiengesellschaft, priority 1988, dated 1991).
Values joined by “and” are separate entries in the source; they are usually repeats but may differ in a detail not shown here. Equal entries are not always repeated.

Legend:
estrogen receptor = target: T1, estrogen receptor (Bos taurus, UniProt P49884); experiment: relative binding affinity (RBA) for the estrogen receptor from calf uterus, displacement of 3H-17β estradiol; settings: for RBA (relative binding affinity for the estrogen receptor): calf uterus, relative to 17 beta estradiol = 100; for affinity for the estrogen receptor (in words): in comparison with estradiol
T1 construct: estrogen receptor from calf uterus; from tissue; host or cells: calf uterus
T1 sequence (P49884 1-596): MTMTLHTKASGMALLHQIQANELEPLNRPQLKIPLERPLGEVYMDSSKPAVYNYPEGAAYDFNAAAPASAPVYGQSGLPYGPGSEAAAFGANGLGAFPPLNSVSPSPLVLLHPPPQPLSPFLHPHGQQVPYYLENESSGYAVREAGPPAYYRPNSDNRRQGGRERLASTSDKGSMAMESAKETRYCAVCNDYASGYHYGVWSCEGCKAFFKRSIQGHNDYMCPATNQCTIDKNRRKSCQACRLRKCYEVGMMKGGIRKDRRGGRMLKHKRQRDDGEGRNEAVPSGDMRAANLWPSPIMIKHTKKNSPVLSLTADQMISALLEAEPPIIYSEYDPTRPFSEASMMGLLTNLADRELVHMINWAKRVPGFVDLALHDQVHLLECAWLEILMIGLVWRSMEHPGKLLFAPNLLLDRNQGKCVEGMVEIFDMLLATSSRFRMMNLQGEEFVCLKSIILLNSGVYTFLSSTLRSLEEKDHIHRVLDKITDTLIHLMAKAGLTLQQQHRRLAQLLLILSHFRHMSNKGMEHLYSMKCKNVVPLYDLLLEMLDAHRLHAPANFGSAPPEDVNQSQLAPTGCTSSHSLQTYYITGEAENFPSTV
Excerpt: *Relative binding affinities for the estrogen receptor from calf uterus,

mouse uterus [1] = experiment: Antiuterotrophic test on infantile mouse (anti-estrogen activity); assay type: in vivo; parameters: Antiuterotrophic Test Rel. uterus wgt / Antiuterotrophic Test Action (rel. uterus wgt): unit not given here; settings: for inhibition in vivo at 0.125 mg: Mus musculus; for inhibition in vivo at 0.125 mg / inhibition in vivo at 0.005 mg / inhibition in vivo at 0.025 mg / inhibition in vivo at 0.625 mg: read-out: Antiuterotrophic Test Inhib. (%); for Antiuterotrophic Test Rel. uterus wgt / inhibition in vivo at 0.005 mg / inhibition in vivo at 0.025 mg / Antiuterotrophic Test Action (rel. uterus wgt) / inhibition in vivo at 0.625 mg: infantile mouse; for inhibition in vivo at 0.005 mg: dose 5 ug (per animal); for inhibition in vivo at 0.025 mg: dose 25 ug (per animal)
Excerpt: (§1) This test is fully described in Cancer Treatment Reviews 1984, 11, 147, and J.Med.Chem., 1984, 27, 1439.

mouse uterus [2] = experiment: Uterotrophic test on infantile mouse (estrogen activity); assay type: in vivo; parameters: unit not given here
Excerpt: as §1

[3] = tested on: human MCF-7 breast cancer cells; experiment: growth of hormone-dependent human MCF-7 breast cancer cells, cell count; assay type: cell-based; settings: Homo sapiens, MCF7, read-out: Cell Count (% T/C); for activity at 10 µM: MCF-7, 1 × 10^-5 M; for activity at 1 µM: MCF-7, 1 × 10^-6 M; for activity at 0.1 µM: MCF-7, 1 × 10^-7 M; for activity at 5 µM: MCF-7, 5 × 10^-6 M; for activity at 0.5 µM: MCF-7, 5 × 10^-7 M
Excerpt: The test protocol for the research is fully described in Eur.J. Cancer Clin. Oncol.

| RBA (relative binding affinity for the estrogen receptor) (estrogen receptor) | SMILES | inhibition in vivo at 0.125 mg (mouse uterus [1]) [%] | inhibition in vivo at 0.005 mg (mouse uterus [1]) [%] | inhibition in vivo at 0.025 mg (mouse uterus [1]) [%] | activity at 10 µM [3] [%] | activity at 1 µM [3] [%] | activity at 0.1 µM [3] [%] | Antiuterotrophic Test Action (rel. uterus wgt) (mouse uterus [1]; dose 5 ug/animal) | Antiuterotrophic Test Action (rel. uterus wgt) (mouse uterus [1]; dose 25 ug/animal) | Uterotrophic Test Action (rel. uterus wgt) (mouse uterus [2]; dose 5 ug/animal) | Uterotrophic Test Action (rel. uterus wgt) (mouse uterus [2]; dose 25 ug/animal) | other results |
| --- | --- | --- | --- | --- | --- | --- | --- | --- | --- | --- | --- | --- |
| 2.3 | Oc1ccc(-c2cc3cc(O)ccc3n2CCCCCCN2CCCC2)cc1 [Compound 5, 5-Hydroxy-2-(4-hydroxyphenyl)-1-[6-pyrrolidino-hexyl]-indole] |  |  |  |  |  |  |  |  |  |  |  |
| 26 | Cc1c(-c2ccc(O)cc2)n(CCCCCC(=O)N2CCOCC2)c2ccc(O)cc12 [Compound 18, 5-Hydroxy-2-(4-hydroxyphenyl)-3-methyl-1-(6-morpholinocarbonylpentyl)-indole] | 41 |  |  | 33.3 ± 2.8 | 56.4 ± 5.2 | 57.5 ± 6.8 | 53.5 ± 8.7 | 52.8 ± 7.4 | 22.0 ± 5.6 | 21.2 ± 4.6 | activity at 5 µM [3]: 42.4 ± 3.7%; activity at 0.5 µM [3]: 58.1 ± 6.7%; Uterotrophic Test Action (rel. uterus wgt) (mouse uterus [2]; dose 1 ug/animal): 20.2 ± 3.4 |
| 23 | Cc1c(-c2ccc(O)cc2)n(CCCCCCN2CCCCC2)c2ccc(O)cc12 [Compound 8, 5-Hydroxy-2-(4-hydroxyphenyl)-3-methyl-1-[6-piperidino-hexyl]-indole] |  |  |  | 38 | 44 | 48 |  |  |  |  | affinity for the estrogen receptor (in words) (estrogen receptor): greatest affinity |
| 7.6 | Cc1c(-c2ccc(O)cc2)n(CCCCCCCCN2CCCC2)c2ccc(O)cc12 [Compound 9, 5-Hydroxy-2-(4-hydroxyphenyl)-3-methyl-1-[8-pyrrolidino-octyl]-indole] |  |  |  |  |  |  |  |  |  |  |  |

Continued, molecule first:

| SMILES | RBA (relative binding affinity for the estrogen receptor) (estrogen receptor) | inhibition in vivo at 0.125 mg (mouse uterus [1]) [%] | inhibition in vivo at 0.005 mg (mouse uterus [1]) [%] | inhibition in vivo at 0.025 mg (mouse uterus [1]) [%] | activity at 10 µM [3] [%] | activity at 1 µM [3] [%] | activity at 0.1 µM [3] [%] | Antiuterotrophic Test Action (rel. uterus wgt) (mouse uterus [1]; dose 5 ug/animal) | Antiuterotrophic Test Action (rel. uterus wgt) (mouse uterus [1]; dose 25 ug/animal) | Uterotrophic Test Action (rel. uterus wgt) (mouse uterus [2]; dose 5 ug/animal) | Uterotrophic Test Action (rel. uterus wgt) (mouse uterus [2]; dose 25 ug/animal) | other results |
| --- | --- | --- | --- | --- | --- | --- | --- | --- | --- | --- | --- | --- |
| Cc1c(-c2ccc(O)cc2)n(CCCCCCN)c2ccc(O)cc12 [Compound 2, 5-Hydroxy-2-(4-hydroxyphenyl)-3-methyl-1-[6-amino-hexyl]-indole] |  | 99 | 68 | 102 |  |  |  |  |  |  |  | affinity for the estrogen receptor (in words) (estrogen receptor): greatest affinity; Antiuterotrophic Test Rel. uterus wgt (mouse uterus [1]; dose 5 ug): 30.0 ± 9.1; Antiuterotrophic Test Rel. uterus wgt (mouse uterus [1]; dose 25 ug): 15.1 ± 1.2; Antiuterotrophic Test Rel. uterus wgt (mouse uterus [1]; dose 125 ug): 16.2 ± 2.7; Uterotrophic Test Rel. uterus wgt (mouse uterus [2]; dose 1 ug): 10.9 ± 4.7; Uterotrophic Test Rel. uterus wgt (mouse uterus [2]; dose 5 ug): 12.0 ± 2.2; Uterotrophic Test Rel. uterus wgt (mouse uterus [2]; dose 25 ug): 12.4 ± 2.7; Uterotrophic Test Rel. uterus wgt (mouse uterus [2]; dose 125 ug): 16.9 ± 2.7 |
| C[C@]12CC[C@@H]3c4ccc(O)cc4CC[C@H]3[C@@H]1CCC2=O [Estrone, reference compound] |  |  |  |  |  |  |  |  |  |  |  | Antiuterotrophic Test Rel. uterus wgt (mouse uterus [1]; estrone alone 0.4 ug): 54.2 ± 12.1; Uterotrophic Test Rel. uterus wgt (mouse uterus [2]; estrone 0.4 ug): 45.8 ± 6.2 and 59.8 ± 20.0 and 53.4 ± 3.6 and 43.0 ± 7.2 and 54.2 ± 12.1 |
| Cc1c(-c2ccc(O)cc2)n(CCCCCCNCc2ccccc2)c2ccc(O)cc12 [Compound 12, 1-(6-Benzylaminohexyl)-5-hydroxy-2-(4-hydroxyphenyl)-3-methyl-indole] | 15 | 51 | 25 | 43 | 41 | 46 | 47 | 53.2 ± 9.0 | 44.6 ± 7.1 | 17.8 ± 4.6 | 23.6 ± 2.5 | Antiuterotrophic Test Action (rel. uterus wgt) (mouse uterus [1]; dose 625 ug/animal): 41.8 ± 7.4; inhibition in vivo at 0.625 mg (mouse uterus [1]; dose 625 ug/animal): 49% |
| Cc1c(-c2ccc(O)cc2)n(CCCCCCN(C)C)c2ccc(O)cc12 [Compound 4, 5-Hydroxy-2-(4-hydroxyphenyl)-3-methyl-1-[6-dimethyamino-hexyl]-indole] | 12 |  |  |  |  |  |  |  |  |  |  |  |
| Cc1c(-c2ccc(O)cc2)n(CCCCCCN2CCOCC2)c2ccc(O)cc12 [Compound 10, 5-Hydroxy-2-(4-hydroxyphenyl)-3-methyl-1-[6-morpholino-hexyl]-indole] | 10 | 102 | 8 | 18 | 36 | 52 | 75 |  |  |  |  | Antiuterotrophic Test Rel. uterus wgt (mouse uterus [1]; dose 5 ug): 51.2 ± 7.5; Antiuterotrophic Test Rel. uterus wgt (mouse uterus [1]; dose 25 ug): 47.7 ± 8.4; Antiuterotrophic Test Rel. uterus wgt (mouse uterus [1]; dose 125 ug): 18.0 ± 4.8; Uterotrophic Test Rel. uterus wgt (mouse uterus [2]; dose 1 ug): 21.2 ± 3.9; Uterotrophic Test Rel. uterus wgt (mouse uterus [2]; dose 5 ug): 19.5 ± 6.9; Uterotrophic Test Rel. uterus wgt (mouse uterus [2]; dose 25 ug): 21.8 ± 11.3; Uterotrophic Test Rel. uterus wgt (mouse uterus [2]; dose 125 ug): 17.4 ± 1.7 |
| CNCCCCCCn1c(-c2ccc(O)cc2)c(C)c2cc(O)ccc21 [Compound 3, 5-Hydroxy-2-(4-hydroxyphenyl)-3-methyl-1-[6-methylamino-hexyl]-indole] | 27 | 59 | 49 | 43 |  |  |  |  |  |  |  | affinity for the estrogen receptor (in words) (estrogen receptor): greatest affinity; Antiuterotrophic Test Rel. uterus wgt (mouse uterus [1]; dose 5 ug): 38.1 ± 8.2; Antiuterotrophic Test Rel. uterus wgt (mouse uterus [1]; dose 25 ug): 41.0 ± 8.5; Antiuterotrophic Test Rel. uterus wgt (mouse uterus [1]; dose 125 ug): 33.8 ± 2.4; Uterotrophic Test Rel. uterus wgt (mouse uterus [2]; dose 1 ug): 14.2 ± 3.1; Uterotrophic Test Rel. uterus wgt (mouse uterus [2]; dose 5 ug): 22.8 ± 8.6; Uterotrophic Test Rel. uterus wgt (mouse uterus [2]; dose 125 ug): 34.0 ± 6.3 |
| Oc1ccc(-c2cc3cc(O)ccc3n2CCCCCCN2CCCCC2)cc1 [Compound 7, 5-Hydroxy-2-(4-hydroxyphenyl)-1-[6-piperidino-hexyl]-indole] | 1.3 |  |  |  |  |  |  |  |  |  |  | affinity for the estrogen receptor (in words) (estrogen receptor): least affinity |
| Cc1c(-c2ccc(O)cc2)n(CCCCCC(=O)NCc2ccccc2)c2ccc(O)cc12 [Compound 20, 1-(6-Benzylcarbamoylpentyl)-5-hydroxy-2-(4-hydroxyphenyl)-3-methylindole] | 12 |  |  | 12 | 26.8 ± 4.2 | 46.8 ± 4.2 | 58.3 ± 4.9 | 50.7 ± 5.0 | 46.9 ± 7.7 | 16.5 ± 3.6 | 20.9 ± 6.5 | activity at 5 µM [3]: 36.6 ± 2.5%; activity at 0.5 µM [3]: 47.9 ± 3%; Antiuterotrophic Test Action (rel. uterus wgt) (mouse uterus [1]; dose 625 ug/animal): 59.5 ± 12.4; inhibition in vivo at 0.625 mg (mouse uterus [1]; dose 625 ug/animal): -23%; Uterotrophic Test Action (rel. uterus wgt) (mouse uterus [2]; dose 625 ug/animal): 19.9 ± 4.1 |
| Cc1c(-c2ccc(O)cc2)n(CCCCCC(=O)N2CCCC2)c2ccc(O)cc12 [Compound 16, 5-Hydroxy-2-(4-hydroxyphenyl)-3-methyl-1-(6-pyrrolidinocarbonylpentyl)-indole] | 7 | 53 | 10 | 29 | 42.1 ± 4 | 47.1 ± 3.7 | 57.2 ± 4.4 | 47.5 ± 10.9 | 42.0 ± 7.0 | 18.2 ± 2.3 | 16.5 ± 2.4 | activity at 5 µM [3]: 44 ± 3.6%; activity at 0.5 µM [3]: 48.2 ± 5.4%; Antiuterotrophic Test Action (rel. uterus wgt) (mouse uterus [1]; dose 625 ug/animal): 40.7 ± 3.9; inhibition in vivo at 0.625 mg (mouse uterus [1]; dose 625 ug/animal): 44%; Uterotrophic Test Action (rel. uterus wgt) (mouse uterus [2]; dose 625 ug/animal): 35.3 ± 10.7 |
| CCN(CC)CCCCCCn1c(-c2ccc(O)cc2)c(C)c2cc(O)ccc21 [Compound 11] | 14 | 50 | 11 | 8 |  |  |  | 51.3 ± 4.9 | 52.1 ± 8.9 | 24.8 ± 11.7 | 14.7 ± 4.3 | Antiuterotrophic Test Action (rel. uterus wgt) (mouse uterus [1]; dose 625 ug/animal): 43.7 ± 7.4; inhibition in vivo at 0.625 mg (mouse uterus [1]; dose 625 ug/animal): 37%; Uterotrophic Test Action (rel. uterus wgt) (mouse uterus [2]; dose 625 ug/animal): 36.4 ± 17.6 |
